# Source: publication PMC3907537, “Evaluation of the Endothelin Receptor Antagonists Ambrisentan, Bosentan, Macitentan, and Sitaxsentan as Hepatobiliary Transporter Inhibitors and Substrates in Sandwich-Cultured Human Hepatocytes” (PLoS ONE, 2014)
# System: sandwich-cultured human hepatocytes
# Experiment: ERA effect on hepatobiliary disposition of d8-taurocholate (B-CLEAR sandwich culture)
# Format: cell-based
# Settings: 100 µM control inhibitor
# Method: Sandwich-cultured human hepatocytes were obtained from Celsis/IVT (Baltimore, MD) or Life Technologies (Durham, NC). Donors were male (n = 3) and female (n = 1) between the ages of 31 and 62 years old. Hepatic uptake, biliary excretion and in vitro biliary clearance (Clb) were determined using the B-CLEAR® hepatocyte sandwich culture model as described by Liu et al., 1999 [34]. In this system, hepatocytes form functional bile canalicular networks while maintaining the expression and function of key uptake and efflux transporters. The canalicular system of bile pockets remains separate from the cellular culture media due to tight junctions between cells. The integrity of these tight junctions is maintained in the presence of calcium (Plus (+) buffer) while in the absence of calcium (Minus (−) buffer), these tight junctions open and release the contents of the canalicular network into the media.
# A dose solution containing 2.5 µM d8-taurocholic acid (d8-TCA) was prepared in Plus (+) Buffer. Co-incubation solutions were prepared by combining d8-TCA dose solution and ERA or rifamycin-SV. Hepatocytes were washed and then conditioned for 10 min in warm Plus (+) or Minus (−) buffer with and without ERA or rifamycin-SV. Pre-incubation solutions were then removed and replaced with dose or co-incubation solutions and incubated for 10 min at 37°C. Following this 10 minute incubation, the dose or co-incubation solutions were removed and the cells were then washed three times with ice-cold Plus (+) buffer. The plates were then frozen at −80°C until processed for bioanalysis.
# Study samples were stored in their original 24-well plates at −80°C until prepared for analysis. A volume of 500 µL of cell lysis solution (70∶30 methanol:water) containing 25 nM internal standard was added to each well and mixed for 20 min of mixing. The volume in each well was then transferred to a 96-well filter plate stacked on a Greiner deep well collection plate. The filter plate/collection plate was then centrifuged at 2000 rcf for 5 min. The filtrate was then evaporated to dryness under nitrogen. Samples were reconstituted in 200 µL of sample diluent (60∶40 methanol:10 mM ammonium acetate, native pH), sealed, and placed on a plate shaker for 15 min. These samples were then transferred to a Whatman 96-well 0.45 µm PVDF filter plate stacked on a Costar 3956 plate (HPLC injection plate), centrifuged at 2000 rcf for 2–3 min, and sealed with a silicon cap mat prior to LC-MS/MS analysis. d8-TCA standard spiking solutions were prepared in 50∶50 methanol:water. For a given lysate standard or control, 10 µL was added to each well of a previously frozen analytical plate. Standards representing 0.5–100 pmoles/well and QC’s at the LLQ and ULQ were prepared. These lysate standards and controls were then further processed as described above for unknown study samples. Prepared samples were filtered and analyzed by LC-MS/MS using a Shimadzu binary HPLC system (Columbia, MD) and tandem mass spectrometry using Thermo Electron TSQ® Quantum Discovery MAX™ (Waltham, MA) with an Ion Max ESI source operating in negative ion electrospray ionization mode. Results for unknowns and QCs were calculated using a standard curve based on an internal standard processing method.
# Data calculations were performed using Microsoft Excel, 2010 with all values reported as mean ± standard deviation (SD). Statistical comparisons across ERA treatments were performed using analysis of variance (ANOVA) with Fisher’s PLSD post hoc analysis (Statview 5.0, SAS Institute, Cary NC); statistical significance was considered to be P<0.05. All mass values were normalized to mg protein by taking the average protein mass in the taurocholate plate determined using a BCA protein assay (Pierce Biotechnology, Rockford, IL). Cellular accumulation determined in Minus (−) buffer (Accumulation Minus (−) Buffer) represents the total mass of analyte inside the hepatocyte at the end of the incubation time period. […]
smiles,measurement,setting,value
CO[C@H]1/C=C/O[C@@]2(C)Oc3c(C)c(O)c4c(O)c(cc(O)c4c3C2=O)NC(=O)/C(C)=C\C=C\[C@H](C)[C@H](O)[C@@H](C)[C@@H](O)[C@@H](C)[C@H](OC(C)=O)[C@@H]1C [rifamycin-SV],d8-TCA Clb in the presence of control inhibitor,untreated control 19.9±7.8,4.5 ± 2.1 mL/min/kg
same,d8-TCA BEI in the presence of control inhibitor,untreated control 74.7%,57.1%
